{"source": "paper PMC9305623", "about": "“Next generation GLP-1/GIP/glucagon triple agonists normalize body weight in obese mice” (Molecular Metabolism, 2022)", "key": {"in vivo": {"assay": "in vivo", "parameters": "species or system Göttingen minipigs", "conditions": "female, Göttingen, minipig, iv, 2 nmol/kg", "experimental": "Studies were conducted in accordance with the Protection of Animals Act, the Act on Experiments on Animals, and the Standard Operating Procedures for Experiments on Animals at Novo Nordisk A/S. The experiments were performed under the supervision and approval of the Danish Government Animal Experiments Inspectorate and the Novo Nordisk Ethical Review Counsel. Female Göttingen minipigs (Ellegaard Göttingen Minipigs A/S), 7–14 months old and weighing 16–35 kg, were housed individually and fed once daily with a restricted SDS minipig diet (Special Diets Services). At least one week before the study, two permanent central venous catheters were implanted in the caudal vena cava of each animal. The animals were fasted for approximately 18 h before dosing and 4 h after dosing but had ad libitum access to water during the whole period. Test compounds dissolved to a concentration of 20–40 nmol/mL in a vehicle (pH 7.4) containing 0.025% polysorbate-20, 10 mM sodium phosphate, and 250 mM glycerol were administered via an intravenous injection through one catheter at a dose of 2 nmol/kg. Blood samples were collected in 8 mM aqueous EDTA for up to 14 days post dosing, preferably through the other catheter, then centrifuged at 4 °C and ∼2000g for 10 min. Plasma was isolated and immediately frozen until RP-HPLC/MS analysis. Individual plasma concentration–time profiles were analysed by a non-compartmental model in Phoenix WinNonLin software (Pharsight Inc.), and the resulting terminal half-lives were determined at the harmonic mean."}, "hGIP Receptor": {"biological_target": "T1, hGIP Receptor (Homo sapiens, UniProt P48546)", "T1 construct": "expressed in transfected cells; host or cells: baby hamster kidney (BHK) cells, stably transfected, with CRE-firefly luciferase reporter", "T1 sequence (P48546 22-466)": "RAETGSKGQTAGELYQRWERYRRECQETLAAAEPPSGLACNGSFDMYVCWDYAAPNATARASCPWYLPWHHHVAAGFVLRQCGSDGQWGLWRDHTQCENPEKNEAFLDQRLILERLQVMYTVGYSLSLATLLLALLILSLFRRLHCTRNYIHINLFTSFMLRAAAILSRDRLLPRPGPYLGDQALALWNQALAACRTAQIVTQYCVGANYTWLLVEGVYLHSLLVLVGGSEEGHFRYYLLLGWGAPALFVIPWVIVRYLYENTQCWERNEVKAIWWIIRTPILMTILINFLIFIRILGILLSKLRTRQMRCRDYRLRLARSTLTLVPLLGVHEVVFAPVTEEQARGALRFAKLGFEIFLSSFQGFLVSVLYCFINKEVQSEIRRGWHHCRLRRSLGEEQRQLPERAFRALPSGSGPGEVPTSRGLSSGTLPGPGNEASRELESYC", "assay": "Receptor activation: cAMP production by CRE-luciferase reporter in stably transfected BHK cells", "assay_type": "cell-based", "conditions": "compared to the native ligand for the receptor", "experimental": "(§1) Cyclic AMP (cAMP) production was assessed as a proxy for receptor activation using stably transfected baby hamster kidney (BHK) cell lines expressing the DNA for one individual receptor (GLP-1R, GIPR, GcgR; human- or mouse-specific sequence) and the DNA for the firefly luciferase reporter gene linked to the cAMP response element (CRE). The cells were kept in continuous culture at 37 °C and 5% CO2 in Dulbecco's Modified Eagle Medium (DMEM) supplemented with 10% heat-inactivated fetal bovine serum (HI-FBS), 300 μg/mL hygromycin, and 500 μg/mL G418; for cell lines expressing GIPR, the G418 concentration was lowered to 400 μg/mL. Cells were plated in a 96-well poly-D-lysine-coated plate at 5,000 cells per well in growth media and incubated overnight at 37 °C with 5% CO2. After the overnight incubation, the media was removed, the plate was washed once in Dulbecco's phosphase-buffered saline (DPBS), and 50 μL of assay buffer (DMEM without phenol red, 10 mM HEPES, 1x Glutamax, 1% ovalbumin, 0.1% Pluronic F-68) was added to each well. […] Aliquots of the dilution curves were added to the cell plate in a volume of 50 μL per well resulting in final assay concentrations ranging from 1 × 10^−14 to 1 × 10^−7 M. The assay plate was incubated for 3 h at 37 °C and 5% CO2. After the incubation, the assay plate was washed once with DPBS. A 100 μL aliquot of DPBS was added to each well followed by 100 μL of steadylite plus reagent (PerkinElmer). The assay plate was covered to protect reagent from light, shaken at 250 rpm at room temperature for 30 min, and read in a microtiter plate reader. EC50 values were calculated using Prism software (GraphPad) with the nonlinear regression log(agonist) vs. response. A minimum of two replicates were measured for each sample."}, "hGcg Receptor": {"biological_target": "T2, hGcg Receptor (Homo sapiens, UniProt P47871)", "T2 construct": "expressed in transfected cells; host or cells: baby hamster kidney (BHK) cells, stably transfected, with CRE-firefly luciferase reporter", "T2 sequence (P47871 26-477)": "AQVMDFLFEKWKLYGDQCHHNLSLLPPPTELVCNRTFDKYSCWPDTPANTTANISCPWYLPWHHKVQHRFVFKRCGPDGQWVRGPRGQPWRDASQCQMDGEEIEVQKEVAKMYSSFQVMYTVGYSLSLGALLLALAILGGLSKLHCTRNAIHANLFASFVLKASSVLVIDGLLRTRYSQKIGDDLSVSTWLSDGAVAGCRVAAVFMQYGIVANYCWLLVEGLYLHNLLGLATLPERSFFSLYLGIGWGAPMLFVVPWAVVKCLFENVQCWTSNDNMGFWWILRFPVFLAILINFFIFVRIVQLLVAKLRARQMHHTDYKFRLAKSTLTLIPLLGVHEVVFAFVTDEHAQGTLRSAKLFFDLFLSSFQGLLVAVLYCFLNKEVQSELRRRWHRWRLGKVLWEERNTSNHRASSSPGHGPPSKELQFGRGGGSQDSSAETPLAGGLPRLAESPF", "assay": "Receptor activation: cAMP production by CRE-luciferase reporter in stably transfected BHK cells", "assay_type": "cell-based", "conditions": "compared to the native ligand for the receptor", "experimental": "as §1"}, "hGLP-1 Receptor": {"biological_target": "T3, hGLP-1 Receptor (Homo sapiens, UniProt P43220)", "T3 construct": "expressed in transfected cells; host or cells: baby hamster kidney (BHK) cells, stably transfected, with CRE-firefly luciferase reporter", "T3 sequence (P43220 24-463)": "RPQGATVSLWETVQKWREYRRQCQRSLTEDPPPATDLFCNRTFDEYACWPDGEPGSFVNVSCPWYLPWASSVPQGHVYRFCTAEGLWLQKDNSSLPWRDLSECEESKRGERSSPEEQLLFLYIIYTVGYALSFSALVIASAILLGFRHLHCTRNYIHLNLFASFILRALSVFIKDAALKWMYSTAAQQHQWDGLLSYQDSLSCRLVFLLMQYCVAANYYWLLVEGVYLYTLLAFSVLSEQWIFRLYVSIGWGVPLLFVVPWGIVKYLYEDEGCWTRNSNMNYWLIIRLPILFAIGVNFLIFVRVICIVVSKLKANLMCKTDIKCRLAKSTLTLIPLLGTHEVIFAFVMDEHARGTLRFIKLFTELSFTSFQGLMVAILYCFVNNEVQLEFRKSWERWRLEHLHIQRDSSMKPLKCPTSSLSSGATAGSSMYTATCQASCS", "assay": "Receptor activation: cAMP production by CRE-luciferase reporter in stably transfected BHK cells", "assay_type": "cell-based", "conditions": "compared to the native ligand for the receptor", "experimental": "as §1"}}}
{"smiles": "CC[C@H](C)[C@H](NC(=O)[C@H](CO)NC(=O)[C@H](Cc1ccc(O)cc1)NC(=O)[C@H](CC(=O)O)NC(=O)[C@H](CO)NC(=O)[C@@H](NC(=O)[C@H](Cc1ccccc1)NC(=O)[C@@H](NC(=O)CNC(=O)[C@H](CCC(N)=O)NC(=O)C(C)(C)NC(=O)[C@@H](N)Cc1ccc(O)cc1)[C@@H](C)O)[C@@H](C)O)C(=O)N[C@@H](Cc1ccc(O)cc1)C(=O)N[C@@H](CC(C)C)C(=O)N[C@@H](CC(=O)O)C(=O)N[C@@H](CCCCNC(=O)COCCOCCNC(=O)COCCOCCNC(=O)CC[C@H](NC(=O)CCCCCCCCCCCCCCCCC(=O)O)C(=O)O)C(=O)N[C@@H](CCC(N)=O)C(=O)N[C@@H](C)C(=O)N[C@@H](C)C(=O)NC(C)(C)C(=O)N[C@@H](CCC(=O)O)C(=O)N[C@@H](Cc1ccccc1)C(=O)N[C@H](C(=O)N[C@@H](CC(N)=O)C(=O)N[C@@H](Cc1c[nH]c2ccccc12)C(=O)N[C@@H](CC(C)C)C(=O)N[C@@H](CC(C)C)C(=O)N[C@@H](C)C(=O)NCC(=O)NCC(=O)N1CCC[C@H]1C(=O)N[C@@H](CO)C(=O)N[C@@H](CO)C(=O)NCC(=O)N[C@@H](C)C(=O)N1CCC[C@H]1C(=O)N1CCC[C@H]1C(=O)N1CCC[C@H]1C(=O)N[C@@H](CO)C(N)=O)C(C)C", "note": "[Compound 7]", "values": [{"measurement": "Vd", "setting": "in vivo", "value": 0.121, "unit": "L/kg"}, {"measurement": "clearance", "setting": "in vivo", "value": 1.4, "unit": "mL/h/kg"}, {"measurement": "hGIP Receptor Relative Potency %", "setting": "hGIP Receptor", "value": 38, "unit": "%"}, {"measurement": "hGcg Receptor Relative Potency %", "setting": "hGcg Receptor", "value": 12, "unit": "%"}, {"measurement": "hGLP-1 Receptor Relative Potency %", "setting": "hGLP-1 Receptor", "value": 93, "unit": "%"}]}
